System: OCI ovarian tumor lines (P7a, P2a, C2p) and ATCC/ECACC ovarian tumor lines (ES2 and OV90)
Assay: Alamar Blue viable cell assay with serial dilutions of paclitaxel or cisplatin, OCI vs ATCC/ECACC lines
Assay type: cell-based, human
Conditions: WIT-oc medium, 5000 cells/well, 72 hrs drug incubation
Method: The next day serial dilutions of paclitaxel were added to the plate.
The next day serial dilutions of cisplatin were added to the plate. […] There was a dramatic difference in the effect of the paclitaxel or cisplatin on OCI cell lines vs. ATCC/ECACC cell lines.
Cisplatin is an example of a chemotherapeutic drug that causes DNA cross linking. Cisplatin binds to DNA and chemically crosslinks the two strands, which causes DNA damage during cell division. This elicits repair mechanisms, which in turn activate apoptosis when repair proves impossible. We plated the OCI ovarian tumor lines (P7a, P2a, C2p) and ATCC/ECACC ovarian tumor lines (ES2 and OV90) in WIT-oc medium (5000 cells/well) in plates in triplicate. The next day serial dilutions of cisplatin were added to the plate.

With N.N.[Cl][Pt][Cl] [cisplatin] the “concentration that produced a 50% decrease in tumor cell numbers (LD90), fold higher in OCI lines compared to ATCC/ECACC lines” value was “more than 6 fold”.

— patent US20160319239A1, “COMPOSITIONS AND METHODS FOR CULTURING CELLS FROM NORMAL HUMAN TUBO-OVARIAN EPITHELIUM AND HUMAN TUBO-OVARIAN TUMORS” (Whitehead Institute for Biomedical Research, priority 2011, published 2016)
